Laboratory results: US20240368181A1, “QUINOXALINE DERIVATIVES AND USES THEREOF” (Black Diamond Therapeutics, Inc., priority 2021, published 2024)
pIC50: −log10 of the molar value.

Key:
Format in all cases: cell-based
[1] = system: UM-UC-14 (FGFR3-S249C) cells; assay: cell proliferation assay (CellTiterGlo), UM-UC-14 cells
How it was run: (§1)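 Each line was seeded and treated with varying compound concentrations or vehicle. Proliferation was read as CellTiterGlo ATP luminescence, and IC50 values were calculated from growth relative to vehicle-treated wells.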

[2] = system: RT-112 (FGFR3-Tacc3 fusion) cells; assay: cell proliferation assay (CellTiterGlo), RT-112 cells; conditions: Homo sapiens, RT-112, RT112 cells, 72 hours
How it was run: as §1

[3] = system: DMS-114 (FGFR1 overexpression) cells; assay: cell proliferation assay (CellTiterGlo), DMS-114 cells
How it was run: as §1

[4] = system: SNU-16 (FGFR2-amplification) cells; assay: cell proliferation assay (CellTiterGlo), SNU-16 cells; conditions: Homo sapiens, 72 hours
How it was run: as §1

Row | SMILES | pIC50 ([1]; UMUC14, 72 h) | pIC50 [2] | pIC50 ([3]; Homo sapiens, DMS-114, 72 h) | pIC50 [4] | pIC50 ([1]; UMUC14, 72 hours) | pIC50 ([3]; Homo sapiens, 72 hours) | pIC50 ([3]; 72 hours)
1 | Cc1nc2ccc(Oc3ccc4ncc(-c5cnn(CC6(C)COC6)c5)nc4c3Cl)cc2[nH]1 [Compound 352] | ≤ 6.40 | ≤ 6.40 | ≤ 6.40 | ≤ 6.40 | – | – | –
2 | Cc1nc2ccc(Oc3c(C)cc4ncc(-c5cnn(CC6CCN(C)CC6)c5)nc4c3Cl)cc2[nH]1 [Compound 334] | ≤ 6.40 | ≤ 6.40 | ≤ 6.40 | ≤ 6.40 | – | – | –
3 | Cc1nc2ccc(Oc3ccc4ncc(-c5cnn(CC6CC(F)(F)C6)c5)nc4c3C3COC3)cc2[nH]1 [Compound 97] | 6.40 to 7.00 | 6.40 to 7.00 | ≤ 6.40 | 7.00 to 7.70 | – | – | –
4 | Cc1nc2ccc(Oc3ccc4ncc(-c5cnn(CCC(F)F)c5)nc4c3Cl)cc2[nH]1 [Compound 92] | 6.40 to 7.00 | 6.40 to 7.00 | ≤ 6.40 | 6.40 to 7.00 | – | – | –
5 | Cc1nc2ccc(Oc3ccc4ncc(-c5cnn(CC6CC(F)(F)C6)c5)nc4c3C3=CCOCC3)cc2[nH]1 [Compound 100] | 7.00 to 7.70 | > 7.70 | 6.40 to 7.00 | 7.00 to 7.70 | – | – | –
6 | Cc1nc2ccc(Oc3ccc4ncc(-c5cnn(CC6CCNS(=O)(=O)C6)c5)nc4c3Cl)cc2[nH]1 (centres unmarked) [Compound 192] | 7.00 to 7.70 | 7.00 to 7.70 | ≤ 6.40 | 7.00 to 7.70 | – | – | –
7 | CCOC(Cn1cc(-c2cnc3ccc(Oc4ccc5nc(C)[nH]c5c4)c(Cl)c3n2)cn1)OCC [Compound 388] | 6.40 to 7.00 | 6.40 to 7.00 | ≤ 6.40 | 6.40 to 7.00 | – | – | –
8 | Cc1nc2ccc(Oc3ccc4ncc(-c5cnn(CC6CC(F)(F)C6)c5)nc4c3C3=CCNC3)cc2[nH]1 [Compound 83] | 7.00 to 7.70 | 6.40 to 7.00 | ≤ 6.40 | 6.40 to 7.00 | – | – | –
9 | Cc1nc2ccc(Oc3ccc4ncc(-c5cnn(C6CC(=O)C6)c5)nc4c3Cl)cc2[nH]1 [Compound 242] | 7.00 to 7.70 | 7.00 to 7.70 | ≤ 6.40 | 7.00 to 7.70 | – | – | –
10 | Cc1nc2ccc(Oc3ccc4ncc(-c5cnn(C6CCN(C(=O)N7CCC7)CC6)c5)nc4c3Cl)cc2[nH]1 [Compound 232] | 7.00 to 7.70 | 7.00 to 7.70 | ≤ 6.40 | 7.00 to 7.70 | – | – | –
11 | Cc1nc2ccc(Oc3ccc4ncc(-c5cnn([C@H]6C[C@H]7CC[C@@H](C6)N7C)c5)nc4c3Cl)cc2[nH]1 [Compound 364] | > 7.70 | > 7.70 | 6.40 to 7.00 | 7.00 to 7.70 | – | – | –
12 | Cc1nc2ccc(Oc3ccc4ncc(-c5cnn(CC6CC7CC6CN7C)c5)nc4c3Cl)cc2[nH]1 (centres unmarked) [Compound 379] | 7.00 to 7.70 | 7.00 to 7.70 | 6.40 to 7.00 | 7.00 to 7.70 | – | – | –
13 | Cc1nc2ccc(Oc3ccc4ncc(-c5cnn(CC6CC(F)(F)C6)c5C)nc4c3Cl)cc2[nH]1 [Compound 275] | 6.40 to 7.00 | ≤ 6.40 | ≤ 6.40 | ≤ 6.40 | – | – | –
14 | Cc1nc2ccc(Oc3ccc4ncc(-c5cnn(CC6CC(F)(F)C6)c5)nc4c3C3=CC(C)(C)OC3(C)C)cc2[nH]1 [Compound 90] | 7.00 to 7.70 | 7.00 to 7.70 | 6.40 to 7.00 | 7.00 to 7.70 | – | – | –
15 | CN=S(C)(=O)N1CCC(n2cc(-c3cnc4ccc(Oc5ccc6nc(C)[nH]c6c5)c(Cl)c4n3)cn2)CC1 (centres unmarked) [Compound 86] | > 7.70 | > 7.70 | 6.40 to 7.00 | > 7.70 | – | – | –
16 | Cc1nc2ccc(Oc3ccc4ncc(-c5cnn([C@H](C)CO)c5)nc4c3Cl)cc2[nH]1 [Compound 126] | 7.00 to 7.70 | 7.00 to 7.70 | 6.40 to 7.00 | 7.00 to 7.70 | – | – | –
17 | Cc1nc2ccc(Oc3ccc4ncc(-c5cnn([C@H]6C[C@@](C)(O)C6)c5)nc4c3Cl)c(F)c2[nH]1 [Compound 151] | > 7.70 | > 7.70 | 7.00 to 7.70 | > 7.70 | – | – | –
18 | Cc1nc2ccc(Oc3ccc4ncc(-c5cn(C6CCNCC6)nc5C)nc4c3Cl)cc2[nH]1 [Compound 264] | 7.00 to 7.70 | 7.00 to 7.70 | 6.40 to 7.00 | 7.00 to 7.70 | – | – | –

Row | SMILES | pIC50 ([1]; UMUC14, 72 h) | pIC50 [2] | pIC50 ([3]; Homo sapiens, DMS-114, 72 h) | pIC50 [4] | pIC50 ([1]; UMUC14, 72 hours) | pIC50 ([3]; Homo sapiens, 72 hours) | pIC50 ([3]; 72 hours)
19 | CNC(=O)N1CCC(n2cc(-c3cnc4ccc(Oc5ccc6nc(C)[nH]c6c5)c(Cl)c4n3)cn2)CC1 [Compound 321] | 7.00 to 7.70 | 7.00 to 7.70 | ≤ 6.40 | 7.00 to 7.70 | – | – | –
20 | Cc1nc2ccc(Oc3ccc4ncc(-c5cnn(CC(=O)N6CCS(=O)(=O)CC6)c5)nc4c3Cl)cc2[nH]1 [Compound 270] | ≤ 6.40 | 7.00 to 7.70 | ≤ 6.40 | 6.40 to 7.00 | – | – | –
21 | Cc1nc2ccc(Oc3ccc4ncc(-c5cnn(CC6CN(CC(=O)N7CC(O)C7)C6)c5)nc4c3Cl)cc2[nH]1 [Compound 314] | 6.40 to 7.00 | 7.00 to 7.70 | 6.40 to 7.00 | 7.00 to 7.70 | – | – | –
22 | Cc1nc2ccc(Oc3ccc4ncc(-c5cnn(CC6CCC(F)(F)C6)c5)nc4c3Cl)cc2[nH]1 (centres unmarked) [Compound 286] | 7.00 to 7.70 | 7.00 to 7.70 | ≤ 6.40 | 6.40 to 7.00 | – | – | –
23 | Cc1nc2ccc(Oc3ccc4ncc(-c5cnn(CCN6CCCC6=O)c5)nc4c3Cl)cc2[nH]1 [Compound 215] | 7.00 to 7.70 | 7.00 to 7.70 | ≤ 6.40 | 7.00 to 7.70 | – | – | –
24 | Cc1nc2ccc(Oc3ccc4ncc(-c5cnn(CC6CC(F)(F)C6)c5)nc4c3C3CCCOC3)cc2[nH]1 (centres unmarked) [Compound 87] | ≤ 6.40 | ≤ 6.40 | ≤ 6.40 | ≤ 6.40 | – | – | –
25 | Cc1nc2ccc(Oc3ccc4ncc(-c5cnn([C@H]6CCN(C7COC7)C[C@@H]6F)c5)nc4c3Cl)cc2[nH]1 [Compound 360] | 7.00 to 7.70 | 7.00 to 7.70 | ≤ 6.40 | 7.00 to 7.70 | – | – | –
26 | Cc1nc2ccc(Oc3ccc4ncc(-c5cnn(C(C)(C)C6CC(F)(F)C6)c5)nc4c3Cl)cc2[nH]1 [Compound 147] | 6.40 to 7.00 | 7.00 to 7.70 | ≤ 6.40 | 6.40 to 7.00 | – | – | –
27 | Cc1nc2ccc(Oc3ccc4ncc(-c5cnn(C6CCNCC6)c5)nc4c3C)cc2[nH]1 [Compound 293] | 7.00 to 7.70 | 7.00 to 7.70 | 6.40 to 7.00 | 7.00 to 7.70 | – | – | –
28 | Cc1nc2ccc(Oc3ccc4ncc(-c5cnn(CC(=O)N6CC(O)C6)c5)nc4c3Cl)cc2[nH]1 [Compound 317] | ≤ 6.40 | 6.40 to 7.00 | ≤ 6.40 | 7.00 to 7.70 | – | – | –
29 | Cc1nc2ccc(Oc3ccc4ncc(-c5cnn(C6CC7(C6)CN(C6COC6)C7)c5)nc4c3Cl)cc2[nH]1 [Compound 218] | 7.00 to 7.70 | 7.00 to 7.70 | 6.40 to 7.00 | 7.00 to 7.70 | – | – | –
30 | Cc1nc2ccc(Oc3ccc4ncc(-c5cnn(C(C)(C)C(=O)N6CC[C@@H](F)C6)c5)nc4c3Cl)cc2[nH]1 [Compound 210] | 6.40 to 7.00 | 7.00 to 7.70 | ≤ 6.40 | 6.40 to 7.00 | – | – | –
31 | Cc1nc2ccc(Oc3ccc4ncc(-c5cnn(CC6CC(F)(F)C6)c5)nc4c3C3CCOCC3)cc2[nH]1 [Compound 94] | ≤ 6.40 | ≤ 6.40 | ≤ 6.40 | ≤ 6.40 | – | – | –
32 | Cc1nc2ccc(Oc3ccc4ncc(-c5cnn([C@H]6C[C@@H](O)C6)c5)nc4c3Cl)c(F)c2[nH]1 [Compound 148] | > 7.70 | > 7.70 | 7.00 to 7.70 | > 7.70 | – | – | –
33 | Cc1nc2ccc(Oc3ccc4ncc(-c5cnn(CC6CN6)c5)nc4c3Cl)cc2[nH]1 (centres unmarked) [Compound 344] | – | 6.40 to 7.00 | – | 6.40 to 7.00 | 6.40 to 7.00 | ≤ 6.40 | –
34 | Cc1nc2ccc(Oc3ccc4ncc(-c5cnn([C@H]6CC7(C[C@@H](O)C7)C6)c5)nc4c3Cl)cc2[nH]1 (some centres unmarked) [Compound 123] | > 7.70 | 7.00 to 7.70 | – | 7.00 to 7.70 | – | – | 6.40 to 7.00
35 | Cc1nc2ccc(Oc3ccc4ncc(-c5cnn(C(C)(C)CO)c5)nc4c3Cl)cc2[nH]1 [Compound 359] | 7.00 to 7.70 | 7.00 to 7.70 | ≤ 6.40 | 7.00 to 7.70 | – | – | –
